# Entries after “also recorded” stand apart in the source; their conditions may differ.
# Key:
# [1] = Body weight, metabolic rate (indirect calorimetry) and fasting serum lipids in mice; type: in vivo, mouse; conditions: ATM^+/+ apoE^−/− mice, 7 mg/kg/week, 4 and 8 weeks Western diet
# Experimental: (§5) The mice were then fed the Western-type diet as described.
# All of these experiments were performed using ATM^+/+ apoE^−/− littermate mice beginning at the age of 8 weeks.
# Serum is generally obtained after a four hour fast and assayed for routine chemistries (glucose, triglycerides, cholesterol, and non-esterified fatty acids) using an automated plate reader connected to a computer, as described by Li et al., Nat.
# [2] = test system: ATM^+/+apoE^−/− and ATM^−/−apoE^−/− mice; assay: Intraperitoneal glucose tolerance test in Western diet-fed mice; type: in vivo, mouse
# Experimental: For glucose tolerance and insulin tolerance tests, mice were fasted and injected with 10% D-glucose (1 g/kg) or human regular insulin (0.75 units/kg body weight, Eli Lilly and Co., Indianapolis, Ind.) in procedures separated by at least one week. Tail vein blood (5-10 µl) was assayed for glucose at 0, 30, 60, and 120 minutes. Blood glucose was assayed using a glucose meter (Hemocue, Mission Viejo, Calif. or Becton Dickinson, San Jose, Calif.). The area under the glucose and insulin curves (AUC) during the OGTT and ITT were calculated using the formula: 0.25 (fasting value)+0.5 (½ h value)+0.75 (1 h value)+0.5 (2 h value).
# The glucose tolerance and insulin tolerance tests were performed on mice that were fasted for 12 hours and then injected with 10% D-glucose (1 g/kg) or human regular insulin (0.75 units/kg body weight, Eli Lilly and Co., Indianapolis, Ind.) in procedures separated by at least one week. Tail vein blood (5-10 μl) was assayed for glucose at 0, 30, 60, and 120 minutes. Blood glucose was assayed using a glucose meter (Hemocue, Mission Viejo, Calif.). The area under the glucose and insulin curves (AUC) during the OGTT and ITT were calculated using the formula: 0.25 (fasting value)+0.5 (½ h value)+0.75 (1 h value)+0.5 (2 h value), as described by Haffner et al., N. Engl.
# as §5
# [3] = test system: subjects with the metabolic syndrome; assay: Fasting lipids and lipoproteins in subjects with the metabolic syndrome; type: in vivo, human; conditions: for Total Cholesterol / HDL cholesterol / LDL cholesterol / Triglycerides: 3 weeks; for Total Cholesterol: average of two subjects, placebo 206; for HDL cholesterol: placebo 47; for LDL cholesterol: placebo 132; for Triglycerides: placebo 139
# retina = conditions: several groups; cited from earlier work
# ATM [4] = biological target: T1, ATM (Homo sapiens, UniProt Q13315); assay: ATM activation in cultured cells; type: cell-based; set-up: endogenous in cells; conditions: low concentrations
# From the text: (§1) However, low level activation of ATM as detected with an antibody that recognizes serine phosphorylation at residue 1981, may also be used in the assay.
# Target sequence in this assay (Q13315 whole entry, species assumed): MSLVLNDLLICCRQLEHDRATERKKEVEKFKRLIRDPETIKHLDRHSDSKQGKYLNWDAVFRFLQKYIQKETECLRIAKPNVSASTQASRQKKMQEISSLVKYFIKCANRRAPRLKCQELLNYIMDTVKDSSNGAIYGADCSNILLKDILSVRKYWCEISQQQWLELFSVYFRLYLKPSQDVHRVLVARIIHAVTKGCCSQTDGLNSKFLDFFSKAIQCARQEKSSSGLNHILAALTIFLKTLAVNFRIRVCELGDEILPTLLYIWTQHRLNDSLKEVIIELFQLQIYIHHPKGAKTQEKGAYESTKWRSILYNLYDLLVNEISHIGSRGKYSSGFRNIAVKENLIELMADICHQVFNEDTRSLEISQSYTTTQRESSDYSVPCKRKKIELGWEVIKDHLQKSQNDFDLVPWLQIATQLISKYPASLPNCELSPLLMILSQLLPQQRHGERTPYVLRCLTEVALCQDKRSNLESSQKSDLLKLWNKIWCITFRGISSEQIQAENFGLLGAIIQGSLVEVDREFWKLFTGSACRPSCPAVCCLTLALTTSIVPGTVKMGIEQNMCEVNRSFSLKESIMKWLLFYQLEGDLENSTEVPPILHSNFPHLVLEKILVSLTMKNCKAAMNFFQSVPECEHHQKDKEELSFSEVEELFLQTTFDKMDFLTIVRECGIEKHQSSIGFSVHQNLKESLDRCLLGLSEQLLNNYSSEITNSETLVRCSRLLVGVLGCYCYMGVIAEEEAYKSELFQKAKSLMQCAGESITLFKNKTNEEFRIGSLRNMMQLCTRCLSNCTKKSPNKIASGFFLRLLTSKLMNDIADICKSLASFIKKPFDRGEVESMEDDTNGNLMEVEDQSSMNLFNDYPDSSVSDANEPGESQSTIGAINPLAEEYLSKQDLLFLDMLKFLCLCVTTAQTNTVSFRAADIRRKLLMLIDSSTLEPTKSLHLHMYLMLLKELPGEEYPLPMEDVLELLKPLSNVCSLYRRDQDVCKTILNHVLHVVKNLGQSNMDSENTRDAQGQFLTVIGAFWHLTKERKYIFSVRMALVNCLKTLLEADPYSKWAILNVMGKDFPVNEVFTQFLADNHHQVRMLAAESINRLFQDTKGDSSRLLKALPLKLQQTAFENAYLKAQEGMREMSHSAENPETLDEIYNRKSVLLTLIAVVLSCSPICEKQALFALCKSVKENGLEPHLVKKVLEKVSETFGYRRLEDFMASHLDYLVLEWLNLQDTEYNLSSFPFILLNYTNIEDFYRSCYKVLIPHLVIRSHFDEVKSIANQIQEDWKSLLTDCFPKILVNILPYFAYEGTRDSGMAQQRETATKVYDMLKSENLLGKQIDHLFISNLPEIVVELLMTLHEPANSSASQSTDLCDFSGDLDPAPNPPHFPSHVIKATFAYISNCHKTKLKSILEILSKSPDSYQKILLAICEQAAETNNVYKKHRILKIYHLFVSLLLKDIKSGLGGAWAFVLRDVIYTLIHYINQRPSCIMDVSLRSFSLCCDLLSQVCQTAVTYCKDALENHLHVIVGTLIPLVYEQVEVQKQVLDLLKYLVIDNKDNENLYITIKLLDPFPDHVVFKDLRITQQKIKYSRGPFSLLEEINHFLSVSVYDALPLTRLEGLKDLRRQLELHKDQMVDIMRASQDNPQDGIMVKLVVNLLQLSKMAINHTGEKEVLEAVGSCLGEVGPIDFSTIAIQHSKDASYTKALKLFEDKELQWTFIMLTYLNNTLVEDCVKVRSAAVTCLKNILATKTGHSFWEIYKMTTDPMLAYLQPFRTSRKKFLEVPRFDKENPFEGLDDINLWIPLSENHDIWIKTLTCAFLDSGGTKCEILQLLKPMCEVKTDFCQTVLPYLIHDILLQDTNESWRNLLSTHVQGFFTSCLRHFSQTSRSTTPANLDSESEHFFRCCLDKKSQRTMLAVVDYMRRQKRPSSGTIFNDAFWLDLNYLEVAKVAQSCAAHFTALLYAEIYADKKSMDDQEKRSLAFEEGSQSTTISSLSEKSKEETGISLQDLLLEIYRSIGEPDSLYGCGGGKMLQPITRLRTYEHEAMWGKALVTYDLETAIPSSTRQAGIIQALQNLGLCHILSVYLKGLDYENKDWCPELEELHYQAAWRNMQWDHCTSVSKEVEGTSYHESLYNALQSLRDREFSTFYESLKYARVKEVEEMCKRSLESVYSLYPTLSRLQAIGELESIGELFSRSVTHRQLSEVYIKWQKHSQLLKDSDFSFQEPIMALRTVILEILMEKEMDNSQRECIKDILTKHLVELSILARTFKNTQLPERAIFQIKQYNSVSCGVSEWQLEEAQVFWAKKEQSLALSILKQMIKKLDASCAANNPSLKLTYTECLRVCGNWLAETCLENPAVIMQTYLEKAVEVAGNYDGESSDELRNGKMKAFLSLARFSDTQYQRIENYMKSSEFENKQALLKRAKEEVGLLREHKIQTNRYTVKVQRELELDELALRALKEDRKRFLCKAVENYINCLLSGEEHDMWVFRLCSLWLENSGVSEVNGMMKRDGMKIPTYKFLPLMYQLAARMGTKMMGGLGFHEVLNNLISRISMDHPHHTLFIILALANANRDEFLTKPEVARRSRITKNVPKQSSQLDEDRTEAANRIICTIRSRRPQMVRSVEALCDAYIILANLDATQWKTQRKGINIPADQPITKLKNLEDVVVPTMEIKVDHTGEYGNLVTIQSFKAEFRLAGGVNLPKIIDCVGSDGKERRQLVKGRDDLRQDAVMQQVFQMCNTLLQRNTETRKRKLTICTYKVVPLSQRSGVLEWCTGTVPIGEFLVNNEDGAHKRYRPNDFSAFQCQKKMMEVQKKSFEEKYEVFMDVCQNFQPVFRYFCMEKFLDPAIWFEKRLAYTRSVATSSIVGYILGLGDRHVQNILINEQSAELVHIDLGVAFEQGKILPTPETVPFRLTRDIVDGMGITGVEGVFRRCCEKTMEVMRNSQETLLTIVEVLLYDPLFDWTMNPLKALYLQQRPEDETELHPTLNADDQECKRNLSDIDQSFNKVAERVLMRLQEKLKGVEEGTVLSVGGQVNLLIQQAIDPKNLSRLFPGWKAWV
# [5] = test system: patients with type 2 diabetes; conditions: cited from earlier work
# [6] = test system: subjects with the metabolic syndrome; assay: Hyperinsulinemic-euglycemic clamp in subjects with the metabolic syndrome; type: in vivo, human
# Experimental: (§2) Glucose and insulin tolerance tests are generally performed using D-glucose (1 g/kg) and insulin (0.75 U/kg), which are administered in separate procedures followed by serial measurements of blood glucose. If necessary, an oral glucose tolerance test (OGTT) will be performed the day after completing the clamp. After an overnight fast, an intravenous catheter will be placed, baseline labs will be obtained, 75 g of glucose will be consumed, and blood glucose, insulin, C peptide, and glucagon will be determined every half hour for 2 hours.
# Two subjects with the metabolic syndrome have completed the protocol. The mean glucose infusion rate to maintain euglycemia (90 mg/dl) at steady state during the first stage of the clamp (using an insulin infusion rate of 15 mU/m^2/min) for these two subjects was determined.
# Clamps are performed with infusion of stable isotope-labeled glucose to allow the determination of both glucose disposal rates and hepatic glucose output during hyperinsulinemic-euglycemic clamps in subjects with the metabolic syndrome. The results are presented as the mean for two subjects.
# [7] = test system: ApoE-null model mice lacking a single allele of ATM; assay: ApoE-null mice lacking a single allele of ATM on high fat diet, chloroquine treatment; type: in vivo, mouse; conditions: 7 mg/kg per week
# ATM^+/+ apoE^−/− mice = assay: Atherosclerosis by the en face technique in Western diet-fed mice; type: in vivo, mouse; conditions: 7 mg/kg/week i.p., 8 weeks Western diet, vs saline
# Experimental: Atherosclerosis was measured using the en face or aortic origin technique. For the former, pinned aortas were imaged with a digital camera and analyzed by using an image-processing program. The percentage of involvement of the intimal surface area is reported for the arch (encompassing the surface from the aortic valve to the left subclavian artery), the thoracic aorta (extending to the final intercostal artery), and the abdominal aorta (to the ileal bifurcation). For the aortic origin technique, mean lesion size for each animal was quantified by the degree of lipid staining of cross-sections of aortic tissue as described. Anesthetized mice were exsanguinated, the heart and aortic arch were perfused, then tissues were removed en bloc and frozen immediately in tissue freeze medium. For each sample, 64 sections were made on a cryostat beginning just caudal to the aortic sinus and extending into the proximal aorta at 10 μm intervals. Slides were fixed with 60% isopropanol and stained with Oil Red O. For each heart, lesions in eight sections at 80 μm intervals were quantified using image analysis software calibrated using a hemocytometer grid.
# as §5
# The quantification of aortic lesions involved cleaning the aortas and pinning them on a wax matrix with the intimal surface facing upward (en face). Images were captured with a digital camera, edited for artifacts, and data were reported as the percent involvement of the arch (encompassing the surface from the aortic valve to the left subclavian artery), thoracic aorta (extending to the last intercostal artery), and abdominal aorta (to the ileal bifurcation). At the time of isolation, hearts were embedded in optical coherence tomography (OCT) media and frozen to permit quantification of lesion formation by staining of serial cryostat-cut sections of the aortic sinus, if necessary.
# [8] = test system: subjects with the metabolic syndrome; assay: Ambulatory blood pressure, glucose tolerance test and body weight in subjects with the metabolic syndrome; type: in vivo, human; conditions: two subjects
# Experimental: as §2
# [9] = test system: ATM^+/+ apoE^−/− and ATM^−/− apoE^−/− mice; assay: Tail-cuff systolic and diastolic blood pressure in Western diet-fed mice; type: in vivo, mouse; conditions: 7 mg/kg/week, 8 weeks Western diet, vs saline
# Experimental: Systolic blood pressure (SBP) and diastolic blood pressure (DBP) were measured after 8 weeks of Western diet feeding in ATM^+/+, ATM^+/−, and ATM^−/− mice. […] A plethysmography device (such as those supplied by Kent Scientific, Litchfield, Conn.) was used for tail cuff blood pressure determinations in acclimated, warmed mice performed by a technician blinded to treatment status, according to the manufacturer's instructions. Results were reported as the mean of 5-8 measurements on each day of 3 consecutive days.
# Systolic and diastolic blood pressures were measured over several days in conscious mice using a tail-cuff system (Kent Scientific, Litchfield, Conn.) as described (Bernal-Mizrachi et al., 2003; Nat. Med. 9:1069-1075). Animals were habituated to the blood pressure apparatus for several days before data were collected. Five to eight measurements were recorded for each mouse at each of three daily sessions. Results are presented as the mean of those measurements on consecutive days.
# db/db mice = assay: Fed blood glucose in db/db mice; type: in vivo, mouse; conditions: male db/db mice, vs baseline and saline
# Experimental: (§3) Two month old male db/db (Lepr^db; LEPR-deficient mice having excess adiposity) mice and ob/ob (Lep^ob, genetically obese) mice were purchased from Harlan (Indianapolis, Ind.) and the Jackson Laboratory, respectively.
# (§4) Blood glucose in male db/db mice were treated with either CHQ or saline. Baseline represents the average fed blood glucose levels of the 12 db/db mice.
# p53 = conditions: low dose chloroquine, 3.5 mg/kg per injection i.p.
# From the text: as §1
# lipoprotein lipase (LPL) = assay: LPL enzyme activity in peritoneal macrophages from treated mice; type: in vivo, mouse; conditions: ATM^+/+ mice treated systemically, vs saline
# ATM [10] = biological target: T1, ATM; assay: Activated ATM (Ser1981P-ATM Western blot) in monocytes of treated subjects; type: in vivo; set-up: lysates were immunoprecipitated using a total ATM antibody (D1611); endogenous in cells; host or cells: adherent peripheral blood monocytes from human subjects with metabolic syndrome
# Experimental: Anticoagulated blood was added to commercially available tubes containing Histopaque, and mononuclear cells were collected after centrifugation. These cells were subjected to a brief second spin using a discontinuous sucrose gradient to remove platelets (which can interfere with the adherence of monocytes to culture dishes), then the mononuclear cells were placed in tissue culture dishes. Two hours later, lymphocytes were washed away, and adherent monocytes were collected and frozen in appropriate media so that cells from different limbs of the protocol can subsequently be studied in the same assays. […] For activated ATM determinations, lysates were immunoprecipitated using a total ATM antibody (D1611). The immunoprecipitated samples were blotted for activated ATM using a monoclonal antibody recognizing Ser1981P-ATM. The gels included a positive control of 293 cells treated with camptothecin. Total lysates were used to blot activated p53 using a polyclonal antibody to Ser15P-p53 (cell signaling). To confirm the p53 data, total lysates were tested using an ELISA-based p53 DNA binding assay (TransAM p53 activity assay from Active Motif).
# Target sequence in this assay (Q13315 whole entry): as the sequence (Q13315 whole entry, species assumed) above
# ob/ob mice = assay: Blood glucose and fasting insulin in ob/ob mice; type: in vivo, mouse
# Experimental: as §3, §4
# JNK = assay: Phospho-JNK ELISA in cultured aortic smooth muscle cells after antisense transfection; type: cell-based, mouse; conditions: aortic smooth muscle cells from ATM^+/+apoE^−/− mice, 1.4 μmol/L, 72 hours
# Experimental: When cultured aortic smooth muscle cells were treated with a morpholino antisense oligonucleotide to ATM, JNK activity was increased, providing direct evidence that interfering with ATM expression induces JNK activity, a mediator of insulin resistance. Analysis of phospho-JNK in vascular smooth muscle cells cultured from ATM^+/+apoE^−/− mice. Primary aortic smooth muscle cells were transfected with an anti-ATM oligonucleotide, or a control oligonucleotide or the vehicle ethoxylated polyethylenimine solution only. Cells were assayed by ELISA for phospho-JNK and total JNK as measured in U/ml/well of a 96-well plate. […] Increased expression of phospho-JNK was detected in tissues involved in systemic insulin action in all three ATM genotypes in apoE^−/− mice, as determined by analysis of Western blots for fat, skeletal muscle and liver. Comparisons were made between ATM-deficient and ATM wild-type animals.
# Most of the mass of the aorta is composed of smooth muscle cells. Smooth muscle cells were cultured from the aortas of apoE^−/− mice by the explant technique as described by Weng et al., Proc. Natl. Acad. Sci. USA, 2003, 100:6730-6735. […] Successful transfection was confirmed by fluorescence microscopy and phospho-JNK and total JNK were assayed 72 hours later using a cell-based ELISA kit. […]
# [11] = 80 mg/day for three weeks, two subjects
# [12] = 1000 mg/day for three days (Powrie et al.)
# [13] = 80 mg/day, first stage of clamp, mean of two subjects
compound,measurement,setting,value
"CCN(CC)CCCC(C)Nc1ccnc2cc(Cl)ccc12 (stereo not shown) [chloroquine, N4-(7-Chloro-4-quinolinyl)-N1,N1-diethyl-1,4-pentanediamine]","serum lipids (fasting cholesterol, triglycerides, NEFA)",[1],no effect
same,glucose tolerance,"[2]; ATM^+/+ apoE^−/− mice, 7 mg/kg/week, 8 weeks Western diet, vs saline",improved
same,glucose tolerance,"[2]; ATM^−/−apoE^−/− mice, Western diet",not
same,decrease in LDL cholesterol,[3]; [11],25%
same,decrease in total cholesterol,[3]; [11],17%
same,decrease in triglycerides,[3]; [11],10%
same,Total Cholesterol,[3]; chloroquine 80 mg/day,172 mg/dL
same,HDL cholesterol,[3]; chloroquine 80 mg/day,47 mg/dL
same,LDL cholesterol,[3]; chloroquine 80 mg/day,100 mg/dL
same,Triglycerides,[3]; chloroquine 80 mg/day,125 mg/dL
same,Total Cholesterol,[3]; chloroquine 250 mg/day,169 mg/dL
same,HDL cholesterol,[3]; chloroquine 250 mg/day,51 mg/dL
same,LDL cholesterol,[3]; chloroquine 250 mg/day,99 mg/dL
same,Triglycerides,[3]; chloroquine 250 mg/day,129 mg/dL
same,cumulative doses with no effects (retinopathy),retina,300 grams
same,ATM activation in cultured cells,ATM [4],activates
same,endogenous glucose production,[5]; [12],without affecting
same,insulin resistance in peripheral tissues,[5]; [12],modestly decreased
same,increase in the glucose infusion rate required to maintain euglycemia,"[5]; 1000 mg/day for three days, patients with type 2 diabetes",13%
same,increase in glucose infusion rate compared to placebo,"[6]; 80 mg dose, second stage of clamp (insulin 40 mU/m^2/min)",23%
same,increase in glucose infusion rate to maintain the blood glucose,"[6]; 80 mg per day oral, 3 weeks, first stage of clamp (insulin 15 mU/m^2/min), mean of two subjects",63%
same,decrease of hepatic glucose production,[6]; [13],58%
same,increase of glucose disposal in peripheral tissues,[6]; [13],62%
same,glucose infusion rate effect,"[6]; 250 mg dose, clamp first and second stage",blunted effect
same,atherosclerosis,[7],significantly reduced
same,central adiposity,[7],significantly reduced
same,glucose intolerance,[7],significantly reduced
same,hypertension,[7],significantly reduced
same,decrease of atherosclerosis (lesion area) at the abdominal aorta,ATM^+/+ apoE^−/− mice,25%
same,decrease of atherosclerosis (lesion area) at the arch,ATM^+/+ apoE^−/− mice,37%
same,decrease of atherosclerosis (lesion area) at the thoracic aorta,ATM^+/+ apoE^−/− mice,25%
same,"ambulatory blood pressures (systolic, diastolic, mean arterial)",[8],did not appear to be affected
same,lowering of systolic pressure,[9],9 mm Hg
same,fed glucose levels,db/db mice,lowered
same,"p53 activation in fat and muscle as well as liver, aorta and cultured macrophages",p53,p53 activation
same,LPL enzyme activity in peritoneal macrophages,lipoprotein lipase (LPL),decreased
same,ATM activation,ATM [10]; 80 mg/day dose,greater activation
same,ATM activation,ATM [10]; 250 mg/day dose,blunted effect
same,activation of ATM in monocytes,"ATM [10]; three weeks of 80 mg/day or 250 mg/day, none with placebo",activation; also recorded: activated
same,fasting insulin levels,"ob/ob mice; 7 mg/kg/week, saline 16,810±1,120, P<0.05","13,360±1996 pg/ml"
same,fasting glucose levels,"ob/ob mice; 3 weeks after initiation, vs baseline and saline",lowered
same,fed glucose levels,ob/ob mice; vs baseline and saline,lowered
"anti-ATM: lissamine-tagged Morpholino antisense oligonucleotide against mouse ATM, 5′-GTGCTAGACTCATGGTTTAAGATTT-3′ (SEQ ID NO:6) (all phosphorodiamidate morpholino (PMO); lissamine tag, position not given here)",JNK activity (phospho-JNK normalized to total JNK),JNK,increased

# — patent publication US8440695B2 (St Jude Children's Research Hospital, priority 2005, dated 2013)
